Measured values as given in BindingDB's records for doi:10.7270/Q2TX3CTT (Broad Institute, 2010).

Molecular target: Glycogen synthase kinase-3 beta (Homo sapiens, UniProt P49841)
Test: concentration-response blocking of human GSK3B – biochemical, luminescence, cell-free homogeneous, retest, dose response (AID 434954)

Glycogen synthase kinase-3 beta, sequence (P49841 whole entry): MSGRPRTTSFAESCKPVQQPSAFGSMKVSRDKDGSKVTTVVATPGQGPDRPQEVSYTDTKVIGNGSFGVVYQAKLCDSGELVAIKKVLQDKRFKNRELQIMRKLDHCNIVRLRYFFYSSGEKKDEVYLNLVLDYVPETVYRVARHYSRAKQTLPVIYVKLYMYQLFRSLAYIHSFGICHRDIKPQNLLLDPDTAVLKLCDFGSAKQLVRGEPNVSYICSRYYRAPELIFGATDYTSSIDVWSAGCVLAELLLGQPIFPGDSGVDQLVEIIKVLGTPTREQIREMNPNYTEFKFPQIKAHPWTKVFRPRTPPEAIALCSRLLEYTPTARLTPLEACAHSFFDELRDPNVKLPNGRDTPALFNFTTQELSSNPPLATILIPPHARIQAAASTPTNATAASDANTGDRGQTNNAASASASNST

Row | EC50 [µM] | SMILES
1 | 24 | Cn1nc(-c2ccc(Cl)cc2)nc2c(=O)n(C)c(=O)nc1-2 [3-(4-Chloro-phenyl)-1,6-dimethyl-1H-pyrimido[5,4-e][1,2,4]triazine-5,7-dione]
2 | > 300 | CC(CC(=O)Nc1nnc(C(C)(C)C)s1)c1ccccc1 (configuration not stated) [MLS001205585]
3 | > 300 | COc1ccc(NC(=O)c2sc(SC)nc2N)cc1 [SMR000011170]
4 | 25.6 | Cc1ccnc(NC(=O)C2CC(=O)N(c3ccc4c(c3)OCCO4)C2)c1 (configuration not stated) [SMR000709078]
5 | > 300 | Nc1nonc1-n1nnc(C(=O)NN=Cc2cccc(F)c2)c1CN1CCCC1 [MLS000948239]
6 | > 300 | Cc1ccc(S(=O)(=O)NCC2COc3ccccc3O2)cc1 (configuration not stated) [N-(2,3-Dihydro-benzo[1,4]dioxin-2-ylmethyl)-4-methyl-benzenesulfonamide]
7 | > 300 | O=C(O)c1ccccc1NCc1ccncc1 [SMR000031483]
8 | 2.33 | Nc1nc(NCC2CCCO2)nc(Nc2ccccc2F)c1[N+](=O)[O-] (configuration not stated) [MLS000769541]
9 | > 300 | Nc1nc(NCCCN2CCOCC2)nc(Nc2ccc(F)cc2)c1[N+](=O)[O-] [4-N-(4-fluorophenyl)-2-N-(3-morpholin-4-ylpropyl)-5-nitropyrimidine-2,4,6-triamine]
10 | > 300 | COC(=O)C(C(=O)OC)c1ccc(NC(=O)c2cccc(Cl)c2)cc1 [dimethyl 2-{4-[(3-chlorobenzoyl)amino]phenyl}malonate]
11 | > 300 | CC(=O)Nc1ccc(C(=O)OCCCOC(=O)c2ccc(NC(C)=O)cc2)cc1
12 | 14.3 | COc1cccc(Nc2ncc(C#N)c(N)n2)c1 [MLS000858965]
13 | 60.3 | CN(C)CCCNc1nc(N)c([N+](=O)[O-])c(NCCO)n1 [2-[[6-amino-2-[3-(dimethylamino)propylamino]-5-nitro-4-pyrimidinyl]amino]ethanol]
14 | > 300 | O=C(COc1ccccc1[N+](=O)[O-])NN=Cc1cccs1 [SMR000185881]
15 | > 300 | CCC(NC(=O)Cc1c(C)c2cc3c(cc2oc1=O)OC(C)(C)CC3)C(=O)O (configuration not stated) [MLS001215946]
16 | 66.1 | COc1ccc(-c2nn(-c3ccccc3)cc2CN=Nc2ccccn2)cc1OC [MLS000388893]
17 | > 300 | COc1cccc(C(=O)NCC(=O)NN=C(C)C=Cc2ccccc2)c1 [MLS000723417]
18 | > 300 | COc1cccc2c1cc1c(=O)n(CC(=O)NC3CCCCC3)nc(C)n12 [N-cyclohexyl-2-(9-methoxy-4-methyl-1-oxidanylidene-[1,2,4]triazino[4,5-a]indol-2-yl)ethanamide]
19 | > 300 | COc1cccc2c1cc1c(=O)n(CC(=O)NCCCN3CCCCC3)nc(C)n12 [2-(9-methoxy-4-methyl-1-oxo-[1,2,4]triazino[4,5-a]indol-2-yl)-N-[3-(1-piperidinyl)propyl]acetamide]
20 | > 300 | NC(=S)NN=Cc1cn(CCC(=O)O)nc1-c1cccc(Br)c1 [3-[3-(3-bromophenyl)-4-[(carbamothioylhydrazinylidene)methyl]-1-pyrazolyl]propanoic acid]
21 | 12.5 | COC(=O)c1ccc(CSc2nnc(-c3ccncc3)o2)o1 [methyl 5-({[5-(4-pyridinyl)-1,3,4-oxadiazol-2-yl]thio}methyl)-2-furoate]
22 | > 300 | O=C(CN(Cc1cccs1)C(=O)CCC(=O)Nc1ccccn1)NCc1ccccc1 [N'-[2-oxo-2-[(phenylmethyl)amino]ethyl]-N-(2-pyridinyl)-N'-(thiophen-2-ylmethyl)butanediamide]
23 | 106 | Cc1nn(-c2ccccc2)c2c1cc1c(=O)n(C)c(=O)nc-1n2-c1ccccc1F [MLS000769580]
24 | 29 | CCOC(=O)c1cnc2ccc(OCC)cc2c1N1CCN(c2ccccc2)CC1 [SMR000130091]
25 | > 300 | COc1ccccc1NC(=O)C(C)Nc1ccc(C)c(Cl)c1 (configuration not stated)
26 | > 300 | Cc1ccc(Nc2nc(N)c([N+](=O)[O-])c(NCc3ccccc3)n2)cc1 [N2-(4-methylphenyl)-5-nitro-N4-(phenylmethyl)pyrimidine-2,4,6-triamine]
27 | 1.9 | CCOC(=O)CSc1ccc2nnc(-c3ccncc3)n2n1
